Source: ChEMBL document CHEMBL4007424, “Design and Synthesis of Enantiomerically Pure Decahydroquinoxalines as Potent and Selective κ-Opioid Receptor Agonists with Anti-Inflammatory Activity in Vivo” (J Med Chem, 2017)
The source made the active and inactive calls. The rule behind the calls is not given here.

What was measured:
[1] = test system: Mus musculus; experiment: Antiinflammatory activity in oxazolone-induced delayed type hypersensitivity BALB/c mouse model assessed as effect on histology changes at 0.1 to 2.5 mg applied topically on ear administered 3 hrs prior to oxazolone challenge on day 7 to 12 post sensitization followed by re-administration of compound on day 13 to 18 without oxazolone challenge measured daily prior to treatment from day 7 to 19 by H and E staining based assay; assay type: functional
[2] = test system: Mus musculus; experiment: (§1) Antiinflammatory activity in oxazolone-induced delayed type hypersensitivity BALB/c mouse model assessed as reduction in ear thickness at 0.1 to 2.5 mg applied topically on ear administered 3 hrs prior to oxazolone challenge on day 7 to 12 post sensitization followed by re-administration of compound on day 13 to 18 without oxazolone challenge measured on day 19 by H and E based staining; assay type: functional
[3] = species on record: Rattus norvegicus; experiment: Displacement of [3H]-DTG from sigma 2 receptor in rat liver membranes at 1 uM after 120 mins by scintillation counting; assay type: cell membranes; conditions: Membrane
[4] = biological target: Kappa-type opioid receptor (Homo sapiens, UniProt P41145); experiment: Agonist activity at recombinant human kappa-type opioid receptor expressed in HEK293 cells at 1 uM after 30 mins by [35S]GTPgammaS binding assay; assay type: functional, cell-based
Kappa-type opioid receptor, sequence (P41145 whole entry): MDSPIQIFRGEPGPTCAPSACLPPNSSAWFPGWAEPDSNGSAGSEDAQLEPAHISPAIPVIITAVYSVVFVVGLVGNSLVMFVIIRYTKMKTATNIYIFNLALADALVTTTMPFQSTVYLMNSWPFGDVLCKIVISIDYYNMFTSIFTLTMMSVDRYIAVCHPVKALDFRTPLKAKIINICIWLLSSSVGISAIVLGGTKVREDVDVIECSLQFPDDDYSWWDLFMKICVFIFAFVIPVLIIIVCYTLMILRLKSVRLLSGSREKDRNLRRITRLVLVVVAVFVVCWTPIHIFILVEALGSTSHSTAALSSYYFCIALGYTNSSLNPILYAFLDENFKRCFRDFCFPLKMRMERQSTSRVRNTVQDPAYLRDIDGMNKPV

[5] = test system: Mus musculus; experiment: (§2) Antiinflammatory activity in tropically administered oxazolone-induced delayed type hypersensitivity BALB/c mouse model assessed as reduction in T-lymphocytes in ear administered 3 hrs prior to oxazolone challenge on day 7 to 12 post sensitization followed by re-administration of compound on day 13 to 18 without oxazolone challenge measured on day 19 by DAPI-staining based fluorescence microscopic analysis; assay type: functional, cell-based
[6] = species on record: Sus scrofa; experiment: Displacement of [3H]-(+)-MK 801 from PCP binding site of NMDA receptor in pig brain cortex membranes at 10 uM after 120 mins by solid scintillation counting; assay type: cell membranes
[7] = test system: Mus musculus; experiment: as §2, with “in” for “in T-lymphocytes in”, “ear thickness” for “ear”, “19” for “19 by DAPI-staining based fluorescence microscopic analysis”; assay type: functional
[8] = test system: Mus musculus; experiment: as §1, with “weight” for “thickness”, “19” for “19 by H and E based staining”; assay type: functional
[9] = biological target: Sigma non-opioid intracellular receptor 1 (Cavia porcellus) (UniProt Q60492); experiment: Displacement of [3H]-(+)-pentazocine from sigma1-type […] receptor in guinea pig cortex membranes at 1 uM after 120 mins by solid scintillation counting; assay type: cell membranes
Sigma non-opioid intracellular receptor 1 (Cavia porcellus), sequence (Q60492 whole entry): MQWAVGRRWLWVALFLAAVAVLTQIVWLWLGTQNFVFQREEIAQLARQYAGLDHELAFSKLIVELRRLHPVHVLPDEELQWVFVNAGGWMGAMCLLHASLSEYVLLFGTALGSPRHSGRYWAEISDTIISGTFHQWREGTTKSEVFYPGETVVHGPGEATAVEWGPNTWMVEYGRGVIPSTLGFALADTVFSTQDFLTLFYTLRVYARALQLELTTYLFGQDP

[10] = test system: Mus musculus; experiment: as §1, with “inflammatory infiltrate” for “ear thickness”; assay type: functional
[11] = test system: Mus musculus; experiment: Antiinflammatory activity in oxazolone-induced delayed type hypersensitivity BALB/c mouse model assessed as reduction in ear swelling at 2.5 mg applied topically on ear administered 3 hrs prior to oxazolone challenge on day 7 to 12 post sensitization followed by re-administration of compound on day 13 to 18 without oxazolone challenge measured daily prior to treatment from day 7 to 19; assay type: functional
[12] = test system: Mus musculus; experiment: as §2, with “effect on” for “reduction in T-lymphocytes in”, “ear weight” for “ear”, “19” for “19 by DAPI-staining based fluorescence microscopic analysis”; assay type: functional
[13] = test system: Mus musculus; experiment: Antiinflammatory activity in oxazolone-induced delayed type hypersensitivity BALB/c mouse model assessed as reduction in ear weight at 2.5 mg applied topically on ear administered 3 hrs prior to oxazolone challenge on day 7 to 12 post sensitization followed by re-administration of compound on day 13 to 18 without oxazolone challenge measured on day 19; assay type: functional
[14] = Plasma concentration in Wistar Han rat at 1 mg/kg, iv measured 0.25 hrs post compound administration; assay type: ADME, organism-based
[15] = test system: Rattus norvegicus; experiment: Toxicity in Wistar Han rat assessed as induction of slight lethargy at 5 mg/kg, iv after 1 hr; assay type: organism-based; conditions: in vivo
[16] = test system: Rattus norvegicus; experiment: Toxicity in Wistar Han rat assessed as induction of slight lethargy at 1 mg/kg, iv after 0.25 hrs; assay type: organism-based; conditions: in vivo
[17] = Plasma concentration in Wistar Han rat at 1 mg/kg, iv measured 1 hr post compound administration; assay type: ADME, organism-based
[18] = Drug level in Wistar Han rat brain at 1 mg/kg, iv measured 1 hr post compound administration; assay type: ADME, organism-based; conditions: Wistar Han, brain, read-out: Drug uptake
[19] = Ratio of drug level in brain to plasma in Wistar Han rat at 1 mg/kg, iv after 1 hr; assay type: ADME, organism-based; conditions: read-out: BPR
[20] = test system: Rattus norvegicus; experiment: Toxicity in Wistar Han rat assessed as severe lethargy at 5 mg/kg, iv after 0.25 hrs; assay type: organism-based; conditions: in vivo
[21] = Drug level in Wistar Han rat brain at 5 mg/kg, iv measured 1 hr post compound administration; assay type: ADME, organism-based; conditions: read-out: Drug uptake
[22] = Plasma concentration in Wistar Han rat at 5 mg/kg, iv measured 0.25 hrs post compound administration; assay type: ADME, organism-based
[23] = test system: Rattus norvegicus; experiment: Toxicity in Wistar Han rat assessed as moderate extension spasms of the tail at 5 mg/kg, iv after 1 hr; assay type: organism-based; conditions: in vivo
[24] = test system: Rattus norvegicus; experiment: Toxicity in Wistar Han rat assessed as moderate tonic spasms at 5 mg/kg, iv after 1 hr; assay type: organism-based; conditions: in vivo
[25] = test system: Rattus norvegicus; experiment: Toxicity in Wistar Han rat assessed as moderate extension spasms of the tail at 5 mg/kg, iv after 0.25 hrs; assay type: organism-based; conditions: in vivo
[26] = Plasma concentration in Wistar Han rat at 5 mg/kg, iv measured 1 hr post compound administration; assay type: ADME, organism-based
[27] = test system: Rattus norvegicus; experiment: Toxicity in Wistar Han rat assessed as flat posture at 5 mg/kg, iv after 0.25 hrs; assay type: organism-based; conditions: in vivo
[28] = test system: Rattus norvegicus; experiment: Toxicity in Wistar Han rat assessed as flat posture at 5 mg/kg, iv after 1 hr; assay type: organism-based; conditions: in vivo
[29] = test system: Rattus norvegicus; experiment: Toxicity in Wistar Han rat assessed as severe lethargy at 5 mg/kg, iv after 1 hr; assay type: organism-based; conditions: in vivo
[30] = Ratio of drug level in brain to plasma in Wistar Han rat at 5 mg/kg, iv after 1 hr; assay type: ADME, organism-based; conditions: read-out: BPR
[31] = test system: Rattus norvegicus; experiment: Toxicity in Wistar Han rat assessed as moderate tonic spasms at 5 mg/kg, iv after 0.25 hrs; assay type: organism-based; conditions: in vivo
[32] = test system: Rattus norvegicus; experiment: Toxicity in Wistar Han rat assessed as severe cramped posture at 5 mg/kg, iv after 0.25 hrs; assay type: organism-based; conditions: in vivo
[33] = test system: Rattus norvegicus; experiment: Toxicity in Wistar Han rat assessed as severe cramped posture at 5 mg/kg, iv after 1 hr; assay type: organism-based; conditions: in vivo
[34] = test system: Mus musculus; experiment: Antiinflammatory activity in arachidonic acid-induced ear dermatitis ICR mouse model assessed as reduction in ear swelling at 3 mg administered twice tropically 30 mins prior and 15 mins after arachidonic acid addition measured 60 mins post arachidonic acid challenge relative to control; assay type: functional
[35] = test system: Mus musculus; experiment: Antiinflammatory activity in arachidonic acid-induced ear dermatitis ICR mouse model assessed as reduction in ear swelling at 3 mg administered tropically 30 mins prior and 15 min after arachidonic acid addition measured 60 mins post arachidonic acid challenge relative to control; assay type: functional
[36] = test system: Mus musculus; experiment: Antiinflammatory activity in arachidonic acid-induced ear dermatitis ICR mouse model assessed as reduction in ear swelling at 0.1 mg administered twice tropically 30 mins prior and 15 mins after arachidonic acid addition measured 60 mins post arachidonic acid challenge relative to control; assay type: functional

SMILES: CS(=O)(=O)N1CCN(C(=O)Cc2ccc(Cl)c(Cl)c2)[C@@H]2[C@@H](N3CC[C@H](O)C3)CCC[C@@H]21
- Activity [1]: Active
- Activity [2]: Dose-dependent effect
- inhibition [3]: 15%
- Activity [4]: 106%
- Activity [5]: Dose-dependent effect
- inhibition [6]: 0%
- Activity [7]: Dose-dependent effect
- Activity [8]: Dose-dependent effect
- inhibition [9]: 0%
- Activity [10]: Dose-dependent effect
- Activity [11]: Active
- Activity [12]: Dose-dependent effect
- Activity [13]: Active

SMILES: COC(=O)N1CCN(C(=O)Cc2ccc(Cl)c(Cl)c2)[C@@H]2[C@@H](N(C)C)CCC[C@@H]21.Cl
- concentration at 0.25 h [14]: 355 ng/mL
- Activity [15]: Toxic
- Activity [16]: Toxic
- concentration at 1 h [17]: 186 ng/mL
- concentration at 1 h [18]: 101 ng/g
- Kp at 1 h [19]: 0.54

SMILES: COC(=O)N1CCN(C(=O)Cc2ccc(F)c(Cl)c2)[C@@H]2[C@@H](N3CC[C@H](F)C3)CCC[C@@H]21.Cl
- Activity [20]: Toxic
- concentration at 1 h [21]: 86.6 ng/g
- concentration at 0.25 h [22]: 3070 ng/mL
- Activity [23]: Toxic
- Activity [24]: Toxic
- Activity [25]: Toxic
- concentration at 1 h [26]: 811 ng/mL
- Activity [27]: Toxic
- Activity [28]: Toxic
- Activity [29]: Toxic
- Kp at 1 h [30]: 0.11
- Activity [31]: Toxic
- Activity [32]: Toxic
- Activity [33]: Toxic

SMILES: COc1ccc2c(c1)c(CC(=O)O)c(C)n2C(=O)c1ccc(Cl)cc1 [INDOMETHACIN]
- inhibition (INH) [34]: 38 - 65%
- inhibition (INH) [35]: 38%
- inhibition (INH) [36]: 38 - 65%
